Measured values published in ChEMBL document CHEMBL5032491, “New Dibenzoquinoxalines Inhibit Triple-Negative Breast Cancer Growth by Dual Targeting of Topoisomerase 1 and the c-MYC G-Quadruplex” (J Med Chem, 2021).
Calls of active or inactive are those of the source. The rule behind the calls is not given here.

Experiments:
MDA-MB-231 = assay: Antiproliferative activity against human MDA-MB-231 cells assessed as inhibition of cell growth incubated for 24 hrs by CCK8 assay; type: functional, cell-based; details: MDA-MB-231, 24 h
[1] = target: T1, DNA topoisomerase 1 (Homo sapiens) (UniProt P11387); assay: Inhibition of human topoisomerase 1 mediated relaxation of supercoiled pHOT1 DNA at 5 to 20 uM incubated for 30 mins by agarose gel electrophoresis; details: dose 5-20 µM
T1 sequence (whole entry): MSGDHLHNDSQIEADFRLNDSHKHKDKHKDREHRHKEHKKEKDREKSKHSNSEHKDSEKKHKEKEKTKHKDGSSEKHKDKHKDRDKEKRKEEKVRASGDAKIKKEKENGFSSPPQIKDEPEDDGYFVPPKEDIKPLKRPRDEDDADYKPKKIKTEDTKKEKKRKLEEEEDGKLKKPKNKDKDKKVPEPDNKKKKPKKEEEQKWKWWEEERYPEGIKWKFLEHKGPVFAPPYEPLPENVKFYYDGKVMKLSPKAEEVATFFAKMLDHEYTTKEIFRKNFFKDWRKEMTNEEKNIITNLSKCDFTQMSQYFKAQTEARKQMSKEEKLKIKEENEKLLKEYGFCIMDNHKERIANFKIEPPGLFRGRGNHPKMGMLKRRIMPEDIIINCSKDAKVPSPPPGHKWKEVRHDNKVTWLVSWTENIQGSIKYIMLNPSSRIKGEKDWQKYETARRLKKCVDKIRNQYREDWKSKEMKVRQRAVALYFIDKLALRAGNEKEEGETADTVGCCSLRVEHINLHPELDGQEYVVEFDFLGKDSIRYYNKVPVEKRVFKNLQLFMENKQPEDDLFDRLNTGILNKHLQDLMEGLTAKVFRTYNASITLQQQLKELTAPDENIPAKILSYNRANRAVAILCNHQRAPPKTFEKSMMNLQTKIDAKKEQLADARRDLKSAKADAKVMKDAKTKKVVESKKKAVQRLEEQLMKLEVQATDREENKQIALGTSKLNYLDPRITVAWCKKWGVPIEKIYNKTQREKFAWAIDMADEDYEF

Quadruplex DNA = assay: Inhibition of c-myc G4-quadruplex DNA transcriptional activity in human MDA-MB-231 cells incubated for 24 hrs by RT-PCR analysis; type: cell-based
[2] = target: T1, DNA topoisomerase 1 (Homo sapiens); assay: Inhibition of human topoisomerase 1 assessed as DNA intercalation at 1.2 uM using relaxed pHOT-1 DNA as substrate preincubated with DNA for 10 mins followed by enzyme addition and measured after 30 mins by agarose gel electrophoresis; details: time 40.0 min

SMILES | IC50 (MDA-MB-231) [µM] | inhibition [1] | inhibition (Quadruplex DNA) | inhibition [2]
CN1CCN(c2ccc3c(c2)c2cc(N4CCN(C)CC4)ccc2c2nc4cc5ccccc5cc4nc32)CC1 | 5.4 | – | – | –
CC1CCN(c2cc3nc4c5ccc(N6CCN(C)CC6)cc5c5cc(N6CCN(C)CC6)ccc5c4nc3cc2F)CC1 | 9.8 | inactive | inactive | –
CN1CCN(c2ccc(-c3nc4cc(F)c(F)cc4nc3-c3ccc(N4CCN(C)CC4)cc3)cc2)CC1 | 1.9 | inactive | Active | –
CC[n+]1c(-c2ccccc2)c2cc(N)ccc2c2ccc(N)cc21 | – | – | – | Active
CN1CCN(c2ccc3c(c2)c2cc(N4CCN(C)CC4)ccc2c2nc4cc5c(cc4nc32)N(C)CCN5C)CC1 | 3.1 | – | inactive | –
CN1CCN(c2ccc3c(c2)c2cc(N4CCN(C)CC4)ccc2c2nc4cnccc4nc32)CC1 | 17.5 | Active | inactive | –
CN1CCN(c2ccc3c(c2)c2cc(N4CCN(C)CC4)ccc2c2nc4cc(F)c(F)cc4nc32)CC1 | 2.1 | Active | – | –
COc1cc2nc3c4ccc(N5CCN(C)CC5)cc4c4cc(N5CCN(C)CC5)ccc4c3nc2cc1OC | 16.8 | inactive | inactive | –
